“And” between values parts separate entries of the source, which are not always exact repeats. Equal values may be shown once.
Tests used:
Format in all cases: in vivo
[1] = test system: 60% high fat Paigen diet induced NASH mouse model; experiment: Short-term Paigen-diet NASH mouse model: liver Oil Red O staining; details: 40 mg/kg p.o. (stopped after 4 administrations), 9 days of diet
Coll1a1 = experiment: Short-term Paigen-diet NASH mouse model: hepatic Coll1a1 (collagen 1α1) gene expression (RT-qPCR); parameters: key to Fibrosis gene expression Coll1a1: Dct: Ct of gene minus Ct of 18S reference; key to Fibrosis gene expression Coll1a1: 2DDct: expression relative to vehicle group, 2^-ΔΔCt method, 18S-normalized; details: 21 days
Description: (§1) To investigate whether Compound #37 prevents the development of pathology associated with NASH and steatosis in an acute exploratory disease model, a study was conducted using a diet-induced acute liver steatosis model in mice. As described below, in this study, C57BL/6J mice were initiated on the Paigen diet and simultaneously treated with Compound #37 (5, 20, and 40 mg/kg/day) or vehicle control (20% HPβCD 10 mL/kg/day) by oral gavage for 21 days.
(§2) After acclimation, 8-week old male C57Bl/6J mice (Charles River) weighing about 25 g were randomized in 4 groups according their body weight and treated once daily around noon by oral gavage with vehicle, or Compound #37 at various for 21 days as follows: Group 1: vehicle-20% (2-hydroxypropyl)-β-cyclodextrin (HP-β-CD) (n=10); Group 2: Compound #37, 5 mg/kg (n=10) Group 3: Compound #37, 20 mg/kg (n=10) Group 4: Compound #37, 40 mg/kg (n=10). During the treatment period, body weight and food intake (measured over 24h) were measured 3 times per week and once a week, respectively. During the acclimation, all mice were fed a standard diet (Special Diets Services RM1 (E), product no. 801492) and tap water ad libitum. After the acclimation period, mice were fed until the end of the experiment with a 60% high fat Paigen diet (60 kcal % fat, 1.25% cholesterol, and 0.5% cholate; D11061901, Research Diet) and tap water ad libitum.
(§3) Gene expression analysis. Hepatic expression levels of genes involved in lipid metabolism (FAS, SREBP1, ACC1, SCD1), cholesterol metabolism (HMG-CoAR, LDLR), SREBP proteolysis (SCAP, INSIG1), ER stress (PERK), oxidative stress (NRF2), inflammation (MCP-1), and fibrosis (collagen 1α1) were quantified by RTqPCR. Expression level was normalized to 18S gene expression and relative expression to vehicle group was calculated with the […] method.

[2] = DIN mouse model: body weight, food and water intake, mortality
Description: Male C57Bl/6J mice (8 weeks old) were housed in enriched ventilated cages (31×12.5×12.7 cm) throughout the experimental phase. Animals' cages litters were changed at least once a week. Animal were housed 5 per cage on inverted 12-hour light cycle (at 09:00 am lights off), 22±2° C. and 55±10% relative humidity. The acclimation period was 20 days. During the acclimation period, all mice were fed a standard diet (RM1 (E) 801492, SDS) and tap water ad libitum. After the acclimation period, mice were fed with the DIN diet (60% fat, cholesterol enriched) and fructose-enriched tap water ad libitum until the end of the experiment.
At 6 weeks of diet, mice were 4-hour fasted (09:00 am to 1:00 pm) and blood (150 μl/EDTA) was collected at 01:00 pm by retro-orbital bleeding under isoflurane anesthesia. Mice were then allocated in 2 homogenous groups (n=12/group) according to their plasma levels of ALT (average levels: 685U/L), AST (average levels: 627U/L) and HOMA-IR index (average value: 4.7), into 2 homogenous groups (see values at day 0 in Tables 15A and 15B ALT/AST and Tables 16A and 16B for HOMA-IR). Mice were then treated once daily by oral gavage with vehicle (Group 1) or Compound #37 at 20 mg/kg (Group 2) for 70 days.
Results. […] Water intake tended to be higher in mice treated with, resulting in a 17% increase in cumulative water intake (p<0.05 vs. vehicle). […]

SREBP1C = experiment: Short-term Paigen-diet NASH mouse model: hepatic SREBP1C gene expression (RT-qPCR); details: liver, 21 days; for DDct: SREBP1C Dct relative to vehicle mean; for Dct: SREBP1C minus 18S; for 2DDct: SREBP1C relative expression to vehicle group, normalized to 18S; for SREBP1C: raw RT-qPCR value
Description: as §1, §2, §3

HMGCoA = experiment: Short-term Paigen-diet NASH mouse model: hepatic HMGCoA (HMG-CoAR) gene expression (RT-qPCR); details: liver; for DDct: HMGCoA Dct relative to vehicle mean; for Dct: HMGCoA minus 18S; for 2DDct: HMGCoA relative expression to vehicle group, normalized to 18S; for HMGCoA: raw RT-qPCR value
Description: as §1, §2, §3

[3] = Short-term Paigen-diet NASH mouse model: body weight, food intake, mortality
Description: Results. […] Mice were maintained on specific diet and were sacrificed after 9 days of diet.

[4] = Compound #37 5 mg/kg, group mean, n=10
[5] = Compound #37 5 mg/kg, individual animals, 5 mg/kg
[6] = Compound #37 20 mg/kg, group mean, n=6
[7] = Compound #37 20 mg/kg, individual animals, 20 mg/kg

CC(C)Cc1cc(-c2nc(-c3ccc(NS(=O)(=O)C(F)(F)F)cc3Cl)cs2)ccn1 [Compound 37, N-(3-chloro-4-(2-(2-isobutylpyridin-4-yl)thiazol-4-yl)phenyl)-1,1,1-trifluoromethanesulfonamide]
Liver O red Oil staining, % labeling ([1]; group mean): 1.87%
Liver O red Oil staining, % labeling ([1]; individual animals): 2.53% and 2.54% and 1.12% and 1.28%
Fibrosis gene expression Coll1a1: 2DDct (Coll1a1; 5 mg/kg, group mean, n 10): 0.88
Fibrosis gene expression Coll1a1: Coll1a1 (Coll1a1; 5 mg/kg, group mean, n 10): 27.2
Fibrosis gene expression Coll1a1: DDct (Coll1a1; 5 mg/kg, group mean, n 10): 0.84
Fibrosis gene expression Coll1a1: Dct (Coll1a1; 5 mg/kg, group mean, n 10): 15
Fibrosis gene expression Coll1a1: 2DDct (Coll1a1; 5 mg/kg, individual animals): 0.86 and 0.27 and 0.96 and 0.69 and 0.15 and 0.05 and 1.75 and 2.26 and 1.2 and 0.57
Fibrosis gene expression Coll1a1: Coll1a1 (Coll1a1; 5 mg/kg, individual animals): 27.81 and 29.15 and 25.8 and 28.03 and 28.92 and 31.82 and 24.93 and 24.75 and 25.01 and 26.07
Fibrosis gene expression Coll1a1: DDct (Coll1a1; 5 mg/kg, individual animals): 0.21 and 1.9 and 0.05 and 0.54 and 2.75 and 4.33 and −0.81 and −1.18 and −0.27 and 0.81
Fibrosis gene expression Coll1a1: Dct (Coll1a1; 5 mg/kg, individual animals): 14.4 and 16.04 and 14.19 and 14.68 and 16.89 and 18.47 and 13.33 and 12.96 and 13.87 and 14.95
Fibrosis gene expression Coll1a1: 2DDct (Coll1a1; 20 mg/kg, group mean, n 5): 0.68
Fibrosis gene expression Coll1a1: Coll1a1 (Coll1a1; 20 mg/kg, group mean, n 6): 26.6
Fibrosis gene expression Coll1a1: DDct (Coll1a1; 20 mg/kg, group mean, n 6): 0.24
Fibrosis gene expression Coll1a1: Dct (Coll1a1; 20 mg/kg, group mean, n 6): 14.4
Fibrosis gene expression Coll1a1: 2DDct (Coll1a1; 20 mg/kg, individual animals): 0.28 and 0.85 and 0.66 and 1 and 0.61 and 3.91*
Fibrosis gene expression Coll1a1: Coll1a1 (Coll1a1; 20 mg/kg, individual animals): 28.9 and 26.66 and 26.93 and 27.17 and 26.34 and 23.43
Fibrosis gene expression Coll1a1: DDct (Coll1a1; 20 mg/kg, individual animals): 1.85 and 0.23 and 0.59 and 0 and 0.71 and −1.97
Fibrosis gene expression Coll1a1: Dct (Coll1a1; 20 mg/kg, individual animals): 15.99 and 14.37 and 14.73 and 14.14 and 14.85 and 12.17
body weight and body weight gain ([2]; 20 mg/kg p.o. daily, 70 days): non-significant trend towards lower
tolerability ([2]; 20 mg/kg/day, 10 weeks): generally well tolerated
DDct (SREBP1C; [4]): 0.26
DDct (SREBP1C; [5]): −0.21 and 0.9 and 0.06 and −0.98 and 1.46 and 1.52 and −0.09 and −0.27 and 0.17 and 0.02
DDct (SREBP1C; [6]): −0.13
DDct (SREBP1C; [7]): 0.5 and 0.38 and 0.11 and −1.36 and 0.66 and −1.08
Dct (SREBP1C; [4]): 14
Dct (SREBP1C; [5]): 13.57 and 14.68 and 13.84 and 12.8 and 15.24 and 15.3 and 13.69 and 13.51 and 13.95 and 13.8
Dct (SREBP1C; [6]): 13.6
Dct (SREBP1C; [7]): 14.28 and 14.16 and 13.89 and 12.42 and 14.44 and 12.7
2DDct (SREBP1C; [4]): 0.95
2DDct (SREBP1C; [5]): 1.16 and 0.54 and 0.96 and 1.98 and 0.36 and 0.35 and 1.07 and 1.21 and 0.89 and 0.99
2DDct (SREBP1C; [6]): 1.29
2DDct (SREBP1C; [7]): 0.71 and 0.77 and 0.93 and 2.57 and 0.63 and 2.12
SREBP1C (SREBP1C; [4]): 26.3
SREBP1C (SREBP1C; [5]): 27.03 and 27.79 and 25.45 and 26.15 and 27.27 and 28.65 and 25.29 and 25.3 and 25.09 and 24.92
SREBP1C (SREBP1C; [6]): 25.8
SREBP1C (SREBP1C; [7]): 27.19 and 26.45 and 26.09 and 25.45 and 25.93 and 23.96
DDct (HMGCoA; [4]): 0.21
DDct (HMGCoA; [5]): −0.39 and 0.32 and 0.09 and −0.08 and 0.87 and 0.63 and −0.03 and 0.10 and 0.35 and 0.20
DDct (HMGCoA; [6]): 0.33
DDct (HMGCoA; [7]): 0.57 and 1.06 and 0.58 and −0.40 and 0.77 and −0.64
Dct (HMGCoA; [4]): 13.1
Dct (HMGCoA; [5]): 12.48 and 13.19 and 12.96 and 12.79 and 13.74 and 13.5 and 12.84 and 12.97 and 13.22 and 13.07
Dct (HMGCoA; [6]): 13.2
Dct (HMGCoA; [7]): 13.44 and 13.93 and 13.45 and 12.47 and 13.64 and 12.23
2DDct (HMGCoA; [4]): 0.89
2DDct (HMGCoA; [5]): 1.31 and 0.80 and 0.94 and 1.05 and 0.55 and 0.64 and 1.02 and 0.93 and 0.78 and 0.87
2DDct (HMGCoA; [6]): 0.88
2DDct (HMGCoA; [7]): 0.67 (2×) and 0.48 and 1.32 and 0.58 and 1.55
HMGCoA (HMGCoA; [4]): 25.3
HMGCoA (HMGCoA; [5]): 25.94 and 26.3 and 24.57 and 26.14 and 25.77 and 26.85 and 24.44 and 24.76 and 24.36 and 24.19
HMGCoA (HMGCoA; [6]): 25.4
HMGCoA (HMGCoA; [7]): 26.35 and 26.22 and 25.65 and 25.5 and 25.13 and 23.49
differences in weight vs vehicle control at end of 3-week dosing period ([3]; 5 mg/kg/day and 20 mg/kg/day, surviving animals): no differences in weight
mice died ([3]; 20 mg/kg/day, group of 10 mice (1 on day 7, 2 on day 9, 1 on day 11)): 4 mice
death of additional mice by day 9 ([3]; 40 mg/kg/day, group of 10 mice): 3 mice
death of mice by day 7 ([3]; 40 mg/kg/day, group of 10 mice): 3 mice
mean weight loss ([3]; 40 mg/kg/day, over 4 days of treatment): > 20%
mice died ([3]; mouse, in vivo): No mice died
